Data reported in publication PMC7580251 (Clinical cancer research : an official journal of the …, 2017).

Columns and labels:
[1] = tested on: patients; details: cited from earlier work
[2] = Plasma pharmacokinetics of veliparib and topotecan; assay type: in vivo, human; details: for half-life / AUC(0-t): human, plasma; for AUC(0-t): oral
[3] = tested on: recurrent, platinum-resistant ovarian cancer; details: cited from earlier work
[4] = tested on: poly(ADP-ribose) (PAR) levels in peripheral blood mononuclear cells; assay: PAR levels in PBMCs by sandwich ELISA; assay type: in vivo, human; details: topotecan alone, Day 30 (Cycle 2 Day 2); of 20 quantifiable pairs
[5] = daily 1-hour infusion for 5 consecutive days, recurrent platinum-resistant ovarian cancer

O=C(c1cc(Cc2n[nH]c(=O)c3ccccc23)ccc1F)N1CCN(C(=O)C2CC2)CC1 [olaparib]
RP2D of the combination, olaparib dose ([1]; per dose, twice daily days 1–5, with irinotecan every two weeks): 50 mg

CC[C@@]1(O)C(=O)OCc2c1cc1n(c2=O)Cc2cc3c(CN(C)C)c(O)ccc3nc2-1 [topotecan]
single-agent MTD ([1]; weekly topotecan (days 2, 9 and 16)): 4 mg/m^2
half-life ([2]; iv): 2.7 ± 0.6 h
plasma clearance, mean (± SD) ([2]; topotecan administered alone on Cycle 2, iv): 10.1 ± 3.8 L/hr/m^2
median overall survival [3, 5]: 57 weeks
overall response rate [3, 5]: 17%
women with myelosuppression ([3]; daily x 5 topotecan): up to 75%
response rate ([3]; phase II, days 1, 8, 15 of a 28-day cycle, platinum refractory/resistant ovarian cancer): 18%
grade 4 toxicities ([3]; phase II, days 1, 8, 15 of a 28-day cycle, myelosuppression mild): no grade 4 toxicities observed
sample pairs with decreased PAR levels [4]: 7
sample pairs with increased PAR levels [4]: 11
sample pairs with unchanged PAR levels [4]: 2

C[C@]1(c2nc3c(C(N)=O)cccc3[nH]2)CCCN1 [veliparib]
single agent MTD ([1]; veliparib bid): 400 mg
AUC(0-t) ([2]; 10 mg): 351 ± 69 ng·h/mL
AUC(0-t) ([2]; 300 mg): 15000 ± 3090 ng·h/mL
half-life ([2]; po): 6.1 ± 2.8 h
